# Data: the supplement of paper PMC10307832
# Assays:
# Experiment in all cases: relative viability (nuclei count vs DMSO), 5 days (fraction); higher = more cells survive
# [1] = test system: A-427
# Outline: (§1)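 Dosing by pin tool came one day after lung cancer cell lines were seeded in 1536-well plates, using either one drug or a fixed anchor-drug dose plus five library-drug doses (not always all listed) in √10 steps. After 5 days, nuclei were counted on 4× images. Relative viability is treated-well nuclei count divided by vehicle-well nuclei count, and values are medians of duplicate plates.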
# [2] = test system: NCI-H1651
# Outline: as §1
# [3] = test system: CAL-12T
# Outline: as §1
# [4] = test system: LK-2
# Outline: as §1
# [5] = test system: NCI-H1648
# Outline: as §1
# [6] = test system: NCI-H1755
# Outline: as §1
# [7] = test system: IA-LM
# Outline: as §1
# [8] = test system: EBC-1
# Outline: as §1
# [9] = test system: NCI-H1703
# Outline: as §1
# [10] = test system: NCI-H1299
# Outline: as §1
# [11] = test system: Calu-6
# Outline: as §1
# [12] = test system: A549
# Outline: as §1
smiles,measurement,setting,value
CN1CCN(CCOc2cc(OC3CCOCC3)c3c(Nc4c(Cl)ccc5c4OCO5)ncnc3c2)CC1 [Saracatinib] + O=C(CCCCCCC(=O)Nc1ccccc1)NO [Vorinostat] (partner 1 µM),relative viability,[1]; first compound 0.02 µM,0.899
same,relative viability,[1]; first compound 0.2 µM,0.852
same,relative viability,[1]; first compound 0.6325 µM,0.795
same,relative viability,[1]; first compound 2 µM,0.863
same,relative viability,[2]; first compound 0.02 µM,0.598
same,relative viability,[2]; first compound 0.2 µM,0.547
same,relative viability,[2]; first compound 0.6325 µM,0.598
same,relative viability,[2]; first compound 2 µM,0.554
same,relative viability,[3]; first compound 0.02 µM,0.804
same,relative viability,[3]; first compound 0.2 µM,0.764
same,relative viability,[3]; first compound 0.6325 µM,0.91
same,relative viability,[3]; first compound 2 µM,0.696
same,relative viability,[4]; first compound 0.02 µM,0.353
same,relative viability,[4]; first compound 0.2 µM,0.317
same,relative viability,[4]; first compound 0.6325 µM,0.224
same,relative viability,[4]; first compound 2 µM,0.234
same,relative viability,[5]; first compound 0.02 µM,0.338
same,relative viability,[5]; first compound 0.2 µM,0.352
same,relative viability,[5]; first compound 0.6325 µM,0.782
same,relative viability,[5]; first compound 2 µM,0.433
same,relative viability,[6]; first compound 0.02 µM,0.687
same,relative viability,[6]; first compound 0.2 µM,0.539
same,relative viability,[6]; first compound 0.6325 µM,0.861
same,relative viability,[6]; first compound 2 µM,0.707
same,relative viability,[7]; first compound 0.02 µM,1.01
same,relative viability,[7]; first compound 0.6325 µM,1.4
same,relative viability,[7]; first compound 2 µM,0.798
Cc1cn(-c2cc(NC(=O)c3ccc(C)c(Nc4nccc(-c5cccnc5)n4)c3)cc(C(F)(F)F)c2)cn1 [Nilotinib] + O=C(CCCCCCC(=O)Nc1ccccc1)NO [Vorinostat] (partner 1 µM),relative viability,[1]; first compound 0.001 µM,0.839
same,relative viability,[1]; first compound 0.003162 µM,0.892
same,relative viability,[1]; first compound 0.01 µM,0.935
same,relative viability,[1]; first compound 0.03162 µM,0.963
same,relative viability,[1]; first compound 0.1 µM,0.775
same,relative viability,[2]; first compound 0.001 µM,0.531
same,relative viability,[2]; first compound 0.003162 µM,0.612
same,relative viability,[2]; first compound 0.01 µM,0.602
same,relative viability,[2]; first compound 0.03162 µM,0.528
same,relative viability,[2]; first compound 0.1 µM,0.418
same,relative viability,[3]; first compound 0.001 µM,0.673
same,relative viability,[3]; first compound 0.003162 µM,0.704
same,relative viability,[3]; first compound 0.01 µM,0.994
same,relative viability,[3]; first compound 0.03162 µM,0.573
same,relative viability,[3]; first compound 0.1 µM,0.566
same,relative viability,[4]; first compound 0.001 µM,0.261
same,relative viability,[4]; first compound 0.003162 µM,0.23
same,relative viability,[4]; first compound 0.01 µM,0.342
same,relative viability,[4]; first compound 0.03162 µM,0.199
same,relative viability,[4]; first compound 0.1 µM,0.27
same,relative viability,[5]; first compound 0.001 µM,0.394
same,relative viability,[5]; first compound 0.003162 µM,0.367
same,relative viability,[5]; first compound 0.01 µM,0.372
same,relative viability,[5]; first compound 0.03162 µM,0.172
same,relative viability,[6]; first compound 0.001 µM,0.605
same,relative viability,[6]; first compound 0.003162 µM,0.755
same,relative viability,[6]; first compound 0.01 µM,0.695
same,relative viability,[6]; first compound 0.03162 µM,0.59
same,relative viability,[6]; first compound 0.1 µM,0.595
same,relative viability,[7]; first compound 0.001 µM,0.526
same,relative viability,[7]; first compound 0.01 µM,0.987
same,relative viability,[7]; first compound 0.03162 µM,0.352
same,relative viability,[7]; first compound 0.1 µM,0.841
Cc1csc(=NC2CCCCC2)n1/N=C/c1ccc(O)c(O)c1O [MIM1] + O=C(c1cc(Cc2n[nH]c(=O)c3ccccc23)ccc1F)N1CCN(C(=O)C2CC2)CC1 [Olaparib] (partner 8 µM),relative viability,[1]; first compound 0.2 µM,0.757
same,relative viability,[1]; first compound 0.6325 µM,0.738
same,relative viability,[1]; first compound 2 µM,0.71
same,relative viability,[1]; first compound 6.325 µM,0.671
same,relative viability,[1]; first compound 20 µM,0.281
same,relative viability,[8]; first compound 0.2 µM,0.559
same,relative viability,[8]; first compound 0.6325 µM,0.742
same,relative viability,[8]; first compound 2 µM,0.673
same,relative viability,[8]; first compound 6.325 µM,0.422
same,relative viability,[8]; first compound 20 µM,0.338
same,relative viability,[2]; first compound 0.2 µM,0.184
same,relative viability,[2]; first compound 0.6325 µM,0.174
same,relative viability,[2]; first compound 2 µM,0.177
same,relative viability,[2]; first compound 6.325 µM,0.159
same,relative viability,[2]; first compound 20 µM,0.153
same,relative viability,[3]; first compound 0.2 µM,0.708
same,relative viability,[3]; first compound 0.6325 µM,0.685
same,relative viability,[3]; first compound 2 µM,0.682
same,relative viability,[3]; first compound 6.325 µM,0.505
same,relative viability,[3]; first compound 20 µM,0.396
same,relative viability,[4]; first compound 0.2 µM,0.934
same,relative viability,[4]; first compound 0.6325 µM,0.75
same,relative viability,[4]; first compound 2 µM,0.472
same,relative viability,[4]; first compound 6.325 µM,0.685
same,relative viability,[4]; first compound 20 µM,0.148
same,relative viability,[9]; first compound 0.2 µM,0.54
same,relative viability,[9]; first compound 0.6325 µM,0.738
same,relative viability,[9]; first compound 2 µM,0.509
same,relative viability,[9]; first compound 6.325 µM,0.369
same,relative viability,[9]; first compound 20 µM,0.0913
same,relative viability,[10]; first compound 0.2 µM,0.942
same,relative viability,[10]; first compound 0.6325 µM,0.954
same,relative viability,[10]; first compound 2 µM,1.03
same,relative viability,[10]; first compound 6.325 µM,0.928
same,relative viability,[10]; first compound 20 µM,0.728
same,relative viability,[11]; first compound 0.6325 µM,0.563
same,relative viability,[11]; first compound 2 µM,0.614
same,relative viability,[11]; first compound 6.325 µM,0.288
same,relative viability,[11]; first compound 20 µM,0.152
same,relative viability,[5]; first compound 0.2 µM,1
same,relative viability,[5]; first compound 0.6325 µM,1.03
same,relative viability,[5]; first compound 2 µM,0.697
same,relative viability,[5]; first compound 6.325 µM,0.611
same,relative viability,[5]; first compound 20 µM,0.298
same,relative viability,[6]; first compound 0.2 µM,0.857
same,relative viability,[6]; first compound 0.6325 µM,0.84
same,relative viability,[6]; first compound 2 µM,0.94
same,relative viability,[6]; first compound 6.325 µM,0.699
same,relative viability,[6]; first compound 20 µM,0.262
same,relative viability,[12]; first compound 0.2 µM,0.277
same,relative viability,[12]; first compound 0.6325 µM,0.282
same,relative viability,[12]; first compound 2 µM,0.304
same,relative viability,[12]; first compound 6.325 µM,0.181
same,relative viability,[12]; first compound 20 µM,0.0693
same,relative viability,[7]; first compound 0.2 µM,0.947
same,relative viability,[7]; first compound 0.6325 µM,0.854
same,relative viability,[7]; first compound 2 µM,0.829
same,relative viability,[7]; first compound 6.325 µM,0.518
same,relative viability,[7]; first compound 20 µM,0.192
CN1CCN(CCOc2cc(OC3CCOCC3)c3c(Nc4c(Cl)ccc5c4OCO5)ncnc3c2)CC1 [Saracatinib] + O=C(c1cc(Cc2n[nH]c(=O)c3ccccc23)ccc1F)N1CCN(C(=O)C2CC2)CC1 [Olaparib] (partner 8 µM),relative viability,[1]; first compound 0.02 µM,0.733
same,relative viability,[1]; first compound 0.2 µM,0.689
same,relative viability,[1]; first compound 0.6325 µM,0.715
same,relative viability,[1]; first compound 2 µM,0.71
same,relative viability,[8]; first compound 0.02 µM,0.701
same,relative viability,[8]; first compound 0.2 µM,0.709
same,relative viability,[8]; first compound 0.6325 µM,0.729
same,relative viability,[8]; first compound 2 µM,0.734
same,relative viability,[2]; first compound 0.02 µM,0.191
same,relative viability,[2]; first compound 0.2 µM,0.16
same,relative viability,[2]; first compound 0.6325 µM,0.162
same,relative viability,[2]; first compound 2 µM,0.165
same,relative viability,[3]; first compound 0.02 µM,0.787
same,relative viability,[3]; first compound 0.2 µM,0.682
same,relative viability,[3]; first compound 0.6325 µM,0.825
same,relative viability,[3]; first compound 2 µM,0.701
same,relative viability,[4]; first compound 0.02 µM,0.802
same,relative viability,[4]; first compound 0.2 µM,0.505
same,relative viability,[4]; first compound 0.6325 µM,0.437
same,relative viability,[4]; first compound 2 µM,0.388
same,relative viability,[9]; first compound 0.02 µM,0.425
same,relative viability,[9]; first compound 0.2 µM,0.393
same,relative viability,[9]; first compound 0.6325 µM,0.172
same,relative viability,[9]; first compound 2 µM,0.158
same,relative viability,[10]; first compound 0.02 µM,0.923
same,relative viability,[10]; first compound 0.2 µM,0.952
same,relative viability,[10]; first compound 0.6325 µM,1.12
same,relative viability,[10]; first compound 2 µM,0.92
same,relative viability,[11]; first compound 0.02 µM,0.53
same,relative viability,[11]; first compound 0.2 µM,0.51
same,relative viability,[11]; first compound 0.6325 µM,0.529
same,relative viability,[11]; first compound 2 µM,0.449
same,relative viability,[5]; first compound 0.02 µM,0.882
same,relative viability,[5]; first compound 0.2 µM,0.678
same,relative viability,[5]; first compound 0.6325 µM,1.75
same,relative viability,[5]; first compound 2 µM,0.417
same,relative viability,[6]; first compound 0.02 µM,0.876
same,relative viability,[6]; first compound 0.2 µM,0.751
same,relative viability,[6]; first compound 0.6325 µM,0.872
same,relative viability,[6]; first compound 2 µM,0.786
same,relative viability,[12]; first compound 0.02 µM,0.338
same,relative viability,[12]; first compound 0.2 µM,0.174
same,relative viability,[12]; first compound 0.6325 µM,0.341
same,relative viability,[12]; first compound 2 µM,0.305
same,relative viability,[7]; first compound 0.02 µM,0.856
same,relative viability,[7]; first compound 0.2 µM,0.884
same,relative viability,[7]; first compound 0.6325 µM,1.06
same,relative viability,[7]; first compound 2 µM,0.76
